For series [1], the target named is Epidermal growth factor receptor (Homo sapiens, UniProt P00533, L858R/T790M). Kind of series: Inhibition of EGFR kinase domain L858R/T790M mutant (unknown origin) expressed using baculovirus expression system incubated for 1 hr using Poly(Glu,Tyr) 4:1 by ELISA method. (ELISA stands for enzyme-linked immunosorbent assay.)
Series [2] can be described thus: AUC (0 to infinity) in ICR mouse at 1 mg/kg, iv by LC-MS/MS method. The series is classed as ADME, organism-based. Also on record: dose 1 mg/kg, route intravenous, time infinity. Particulars: in vivo.
Series [3] can be described thus: Tmax in ICR mouse at 10 mg/kg, po by LC-MS/MS method. The series is classed as ADME, organism-based. Conditions: in vivo.
A short description of series [4]: Cmax in ICR mouse at 10 mg/kg, po by LC-MS/MS method. The format is ADME, organism-based. Also on record: dose 10 mg/kg, route oral. Conditions: in vivo.
The nature of series [5]: Tmax in ICR mouse at 1 mg/kg, iv by LC-MS/MS method. The series is classed as ADME, organism-based. Particulars: in vivo.
The nature of series [6]: Half life in mouse liver microsomes at 1 uM in presence of NADPH by LC-MS/MS method. The format is ADME, Microsome. For orientation: Microsomes from liver hold many membrane-bound enzymes, among them those of drug oxidation.
For series [7], the target named is T1, Cyclin-G-associated kinase (Homo sapiens) (UniProt O14976).
T1 sequence (whole entry): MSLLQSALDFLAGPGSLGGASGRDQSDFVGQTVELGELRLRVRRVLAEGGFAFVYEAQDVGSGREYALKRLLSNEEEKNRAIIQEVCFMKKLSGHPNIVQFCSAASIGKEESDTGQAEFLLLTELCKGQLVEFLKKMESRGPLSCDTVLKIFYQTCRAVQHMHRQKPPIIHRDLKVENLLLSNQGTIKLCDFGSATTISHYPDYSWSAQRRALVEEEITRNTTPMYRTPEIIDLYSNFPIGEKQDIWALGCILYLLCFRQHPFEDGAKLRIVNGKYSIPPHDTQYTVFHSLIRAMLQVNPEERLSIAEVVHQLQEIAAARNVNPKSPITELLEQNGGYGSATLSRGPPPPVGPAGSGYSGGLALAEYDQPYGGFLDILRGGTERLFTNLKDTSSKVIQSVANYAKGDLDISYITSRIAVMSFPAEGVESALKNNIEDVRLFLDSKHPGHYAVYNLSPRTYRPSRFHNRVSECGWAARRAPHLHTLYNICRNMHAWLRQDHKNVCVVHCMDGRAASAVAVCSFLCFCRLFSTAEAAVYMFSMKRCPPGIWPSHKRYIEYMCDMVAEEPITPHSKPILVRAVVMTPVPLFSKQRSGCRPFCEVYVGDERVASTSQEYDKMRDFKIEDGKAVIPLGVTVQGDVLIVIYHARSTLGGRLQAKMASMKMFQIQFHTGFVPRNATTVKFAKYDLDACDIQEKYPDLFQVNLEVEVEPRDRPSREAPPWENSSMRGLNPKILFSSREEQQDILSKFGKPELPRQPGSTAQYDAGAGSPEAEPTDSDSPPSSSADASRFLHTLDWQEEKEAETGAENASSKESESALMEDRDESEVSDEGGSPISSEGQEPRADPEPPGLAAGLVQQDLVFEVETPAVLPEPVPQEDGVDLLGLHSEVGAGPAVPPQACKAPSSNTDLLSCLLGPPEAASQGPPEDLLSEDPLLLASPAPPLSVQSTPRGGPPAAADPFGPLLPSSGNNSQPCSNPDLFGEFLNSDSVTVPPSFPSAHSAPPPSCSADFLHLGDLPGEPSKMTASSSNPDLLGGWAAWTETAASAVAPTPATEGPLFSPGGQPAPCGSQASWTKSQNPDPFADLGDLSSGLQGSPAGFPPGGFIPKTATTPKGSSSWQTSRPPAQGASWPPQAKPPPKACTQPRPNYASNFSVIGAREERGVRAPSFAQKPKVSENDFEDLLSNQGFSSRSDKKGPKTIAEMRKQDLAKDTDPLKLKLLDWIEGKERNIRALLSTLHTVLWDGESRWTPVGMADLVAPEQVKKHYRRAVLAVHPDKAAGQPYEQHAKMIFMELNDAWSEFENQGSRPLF
Kind of series: Inhibition of human GAK expressed in bacterial system assessed as remaining enzyme activity at 1000 nM relative to untreated control.

A short description of series [8]: Toxicity in human NCI-H1975 cells xenografted BALB/c mouse assessed as mouse mortality at 50 mg/kg, po qd for 14 consecutive days. The series is classed as organism-based. Particulars: in vivo. For orientation: Xenograft models place foreign cells or tissue in a host animal.
The nature of series [9]: Clearance in ICR mouse at 1 mg/kg, iv by LC-MS/MS method. The series is classed as ADME, organism-based. Conditions: in vivo.
In series [10] the target is Epidermal growth factor receptor (Homo sapiens, UniProt P00533). Kind of series: Inhibition of wild type EGFR kinase domain (unknown origin) expressed using baculovirus expression system incubated for 1 hr using Poly(Glu,Tyr) 4:1 by ELISA method.
Epidermal growth factor receptor (Homo sapiens, UniProt P00533), sequence (P00533 whole entry, the tested form may be a part): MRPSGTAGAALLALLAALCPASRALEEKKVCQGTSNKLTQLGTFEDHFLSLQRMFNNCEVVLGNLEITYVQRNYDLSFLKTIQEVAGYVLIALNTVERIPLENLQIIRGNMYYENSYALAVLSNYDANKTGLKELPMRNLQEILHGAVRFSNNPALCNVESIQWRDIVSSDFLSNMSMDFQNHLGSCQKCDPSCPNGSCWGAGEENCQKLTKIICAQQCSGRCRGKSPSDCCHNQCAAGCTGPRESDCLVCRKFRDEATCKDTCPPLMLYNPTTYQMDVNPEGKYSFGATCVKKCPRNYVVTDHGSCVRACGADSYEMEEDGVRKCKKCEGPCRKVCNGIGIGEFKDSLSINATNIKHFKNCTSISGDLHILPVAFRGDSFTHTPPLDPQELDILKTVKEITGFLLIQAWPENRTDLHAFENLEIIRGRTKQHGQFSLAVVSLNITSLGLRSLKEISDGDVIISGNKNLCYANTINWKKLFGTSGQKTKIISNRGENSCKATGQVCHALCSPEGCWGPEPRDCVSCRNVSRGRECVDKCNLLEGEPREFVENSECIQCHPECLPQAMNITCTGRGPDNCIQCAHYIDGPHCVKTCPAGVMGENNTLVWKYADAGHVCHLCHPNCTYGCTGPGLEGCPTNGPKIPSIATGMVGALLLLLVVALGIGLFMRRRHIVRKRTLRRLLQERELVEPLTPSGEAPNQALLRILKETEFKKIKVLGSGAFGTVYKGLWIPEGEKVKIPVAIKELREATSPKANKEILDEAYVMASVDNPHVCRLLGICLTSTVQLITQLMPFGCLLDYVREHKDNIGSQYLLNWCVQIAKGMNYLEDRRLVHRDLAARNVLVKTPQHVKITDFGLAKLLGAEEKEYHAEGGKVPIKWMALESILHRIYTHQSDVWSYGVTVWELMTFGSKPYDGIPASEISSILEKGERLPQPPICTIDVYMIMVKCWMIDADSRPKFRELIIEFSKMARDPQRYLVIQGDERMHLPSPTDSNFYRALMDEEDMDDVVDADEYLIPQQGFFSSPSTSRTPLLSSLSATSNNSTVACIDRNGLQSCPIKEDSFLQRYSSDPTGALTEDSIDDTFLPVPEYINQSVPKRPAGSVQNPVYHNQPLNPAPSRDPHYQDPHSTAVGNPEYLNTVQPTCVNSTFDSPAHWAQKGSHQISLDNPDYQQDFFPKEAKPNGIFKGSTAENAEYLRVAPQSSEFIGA
The target of series [11] is Receptor tyrosine-protein kinase erbB-2 (Homo sapiens) (UniProt P04626). Kind of series: Inhibition of human ERBB2 expressed in mammalian system assessed as remaining enzyme activity at 1000 nM relative to untreated control.
Receptor tyrosine-protein kinase erbB-2 (Homo sapiens), sequence (P04626 whole entry): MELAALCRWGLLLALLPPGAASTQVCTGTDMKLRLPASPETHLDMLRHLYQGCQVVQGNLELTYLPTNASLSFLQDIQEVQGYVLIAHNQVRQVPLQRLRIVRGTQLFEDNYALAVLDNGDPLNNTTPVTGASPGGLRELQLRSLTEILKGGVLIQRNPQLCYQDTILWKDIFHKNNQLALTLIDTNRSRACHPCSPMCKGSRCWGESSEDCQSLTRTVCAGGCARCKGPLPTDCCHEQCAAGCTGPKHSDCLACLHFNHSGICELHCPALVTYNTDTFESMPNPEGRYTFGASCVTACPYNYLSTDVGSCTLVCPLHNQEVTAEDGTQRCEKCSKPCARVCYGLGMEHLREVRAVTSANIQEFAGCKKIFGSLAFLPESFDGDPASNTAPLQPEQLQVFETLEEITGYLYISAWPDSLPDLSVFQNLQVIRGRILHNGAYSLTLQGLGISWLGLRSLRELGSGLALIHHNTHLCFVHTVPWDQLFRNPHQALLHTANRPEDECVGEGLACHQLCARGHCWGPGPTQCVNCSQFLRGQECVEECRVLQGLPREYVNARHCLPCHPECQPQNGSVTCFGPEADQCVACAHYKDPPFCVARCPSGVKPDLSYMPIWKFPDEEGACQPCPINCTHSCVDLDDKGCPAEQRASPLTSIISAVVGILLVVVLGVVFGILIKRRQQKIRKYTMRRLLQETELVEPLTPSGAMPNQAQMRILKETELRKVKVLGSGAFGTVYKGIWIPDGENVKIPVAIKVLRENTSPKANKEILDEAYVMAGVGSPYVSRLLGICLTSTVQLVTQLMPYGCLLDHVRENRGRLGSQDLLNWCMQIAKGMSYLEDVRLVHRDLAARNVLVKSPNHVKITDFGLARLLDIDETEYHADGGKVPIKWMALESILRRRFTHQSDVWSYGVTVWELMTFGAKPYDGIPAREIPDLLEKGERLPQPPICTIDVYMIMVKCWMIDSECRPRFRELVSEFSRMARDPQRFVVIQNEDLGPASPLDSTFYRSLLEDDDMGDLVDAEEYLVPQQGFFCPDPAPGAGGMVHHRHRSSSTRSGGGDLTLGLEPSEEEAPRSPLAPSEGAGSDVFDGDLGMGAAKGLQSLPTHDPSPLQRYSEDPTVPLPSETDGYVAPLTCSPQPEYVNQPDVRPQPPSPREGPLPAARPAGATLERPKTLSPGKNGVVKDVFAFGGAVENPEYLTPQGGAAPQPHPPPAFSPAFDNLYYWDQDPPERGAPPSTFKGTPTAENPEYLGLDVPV
The nature of series [12]: AUC (0 to infinity) in ICR mouse at 10 mg/kg, po by LC-MS/MS method. The format is ADME, organism-based. Particulars: in vivo. Also on record: dose 10 mg/kg, time infinity, route oral.
For series [13], the system named is NCI-H1975. Conditions: Homo sapiens, at 50 mg/kg.
Description: Antitumor activity against human NCI-H1975 cells xenografted in BALB/c mouse assessed as inhibition of tumor cell proliferation by measuring Ki-67 expression at 50 mg/kg, po qd for 14 consecutive days by immunohistochemistry

Active and inactive are the calls of the source. The rule behind the calls is not given here. Where only a bound is given, the exact number is not on record here.

One may read the IC50 as the concentration that inhibits the measured activity by half. Higher therefore signals weaker potency in that assay. For orientation: AUC(0-inf) means total exposure, with the tail of the curve extrapolated. A high value points to high exposure. One may read the Tmax as the time at which the peak concentration occurs. For orientation: Cmax means the peak of the concentration-time curve. The term half-life denotes the time in which the quantity being followed falls by half. As a reminder, the clearance is a measure of how efficiently the substance is removed, as volume per time.

Epidermal growth factor receptor (Homo sapiens, UniProt P00533, L858R/T790M), sequence (P00533 25-1210 T790M/L858R limits assumed): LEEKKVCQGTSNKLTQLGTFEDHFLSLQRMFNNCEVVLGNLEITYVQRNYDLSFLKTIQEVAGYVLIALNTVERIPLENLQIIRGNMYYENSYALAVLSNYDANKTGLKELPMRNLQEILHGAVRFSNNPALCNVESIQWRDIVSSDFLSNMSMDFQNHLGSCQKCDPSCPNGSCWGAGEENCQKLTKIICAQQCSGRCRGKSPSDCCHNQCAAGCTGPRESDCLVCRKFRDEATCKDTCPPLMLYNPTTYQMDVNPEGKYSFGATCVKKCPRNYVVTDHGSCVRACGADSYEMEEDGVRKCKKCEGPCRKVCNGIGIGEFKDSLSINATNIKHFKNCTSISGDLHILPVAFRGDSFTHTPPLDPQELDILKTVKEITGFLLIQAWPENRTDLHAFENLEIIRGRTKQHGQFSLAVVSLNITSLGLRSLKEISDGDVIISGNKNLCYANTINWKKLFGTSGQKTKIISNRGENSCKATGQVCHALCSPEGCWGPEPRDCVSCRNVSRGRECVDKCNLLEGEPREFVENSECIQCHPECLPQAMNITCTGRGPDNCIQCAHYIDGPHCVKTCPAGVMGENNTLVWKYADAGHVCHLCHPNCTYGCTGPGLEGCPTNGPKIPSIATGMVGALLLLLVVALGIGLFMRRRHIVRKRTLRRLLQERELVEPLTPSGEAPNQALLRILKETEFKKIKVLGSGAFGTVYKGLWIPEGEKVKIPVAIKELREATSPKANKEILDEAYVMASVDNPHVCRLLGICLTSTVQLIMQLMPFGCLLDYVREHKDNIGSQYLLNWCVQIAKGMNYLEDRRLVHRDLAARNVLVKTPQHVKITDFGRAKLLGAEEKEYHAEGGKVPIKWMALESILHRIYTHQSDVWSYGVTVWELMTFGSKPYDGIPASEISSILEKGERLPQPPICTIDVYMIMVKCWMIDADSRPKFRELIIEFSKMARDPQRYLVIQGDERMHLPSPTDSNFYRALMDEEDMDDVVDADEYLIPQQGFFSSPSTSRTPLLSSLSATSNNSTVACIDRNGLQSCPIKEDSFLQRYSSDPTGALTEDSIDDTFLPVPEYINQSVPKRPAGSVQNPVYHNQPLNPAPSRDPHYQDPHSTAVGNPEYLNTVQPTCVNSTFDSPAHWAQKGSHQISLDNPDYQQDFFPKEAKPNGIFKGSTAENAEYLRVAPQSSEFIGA

Turning to `C=CC(=O)Nc1cccc(-n2c(=O)c(=O)n(C(C)C)c3cnc(Nc4ccc(N5CCN(C)CC5)cc4OC)nc32)c1`, the IC50 was determined as 0.3 nM in series [1] and 2 nM in [10]. In addition, the area under the curve AUC(0-inf) in series [2] was 143 ng·h/mL; in series [12], 680 ng·h/mL. The values for the time to peak (Tmax) in series [3] and in [5] were 120 min and 54 min, respectively. Besides, in series [4], the Cmax is 136 ng/mL. For the same compound, in series [6], the half-life at 1 µM was 51 min. In addition, the Activity is below 1% in series [7], “Non-Toxic” in series [8] and below 1% in [11]. The compound further had a clearance in series [9] of 117 mL/min/kg. In addition, the inhibition entry in series [13] is “Active”.

(Values after ChEMBL document CHEMBL4425144, “Discovery and Structural Optimization of N5-Substituted 6,7-Dioxo-6,7-dihydropteridines as Potent and Selective Epidermal Growth Factor Receptor (EGFR) Inhibitors against L858R/T790M Resistance Mutation” (J Med Chem, 2016).)
